{
  "source": "patent US7888394B2",
  "about": "“Synthesis, polymorphs, and pharmaceutical formulation of FAAH inhibitors” (N.V. Organon, priority 2006, dated 2011)",
  "key": {"[1]": {"experiment": "Oral bioavailability determination of KDS-4103 polymorphs: plasma concentrations after oral administration of suspensions to rats", "assay_type": "in vivo", "settings": "for [KDS-4103] plasma concentration: oral gavage, 100 mg/mL suspension at 1 ml/kg", "protocol": "Animals were sacrificed at 30, 60 and 90 minutes post-dose in each group. Collection of K3EDTA was acheived via cardiac puncture."}, "[2]": {"experiment": "Particle size determination of KDS-4103 polymorphs (Malvern Mastersizer 2000 Hydro S, dispersed in hexane)", "assay_type": "physicochemical", "settings": "1 minute sonication (47 kHz), 10,000 sweeps", "protocol": "“Effective particle size,” as used herein refers to and is determined on the basis of the volume weight average particle size as measured by conventional particle size measuring techniques well known to those skilled in the art. Such techniques include, for example, sedimentation field flow fractionation, photon correlation spectroscopy, light scattering, laser diffraction and disc centrifugation. For the purposes of the compositions, formulations and methods described herein, effective particle size is the volume mass average particle size as determined using light scattering methods, e.g. Horiba LA-950. For example, an effective particle size of 5.9 μm means that 50% of the particles by weight are less than 5.9 μm and 50% of the particles by weight are greater than 5.9 μm."}, "[3]": {"experiment": "Oral bioavailability determination of KDS-4103 polymorphs: plasma concentrations after oral administration of suspensions to rats", "assay_type": "in vivo", "settings": "oral gavage, 100 mg/mL suspension at 1 ml/kg"}, "[4]": {"system": "fatty acid amide hydrolase (FAAH)", "settings": "cited from earlier work"}},
  "data": [
    {"smiles": "NC(=O)c1cccc(-c2cccc(OC(=O)NC3CCCCC3)c2)c1", "note": "[KDS-4103 polymorph from acetonitrile]", "values": [
      {"measurement": "[KDS-4103] plasma concentration", "setting": "[1]; time 30 minutes post-dose", "result": 196.06, "unit": "ng/mL"},
      {"measurement": "[KDS-4103] plasma concentration", "setting": "[1]; time 60 minutes post-dose", "result": 58.95, "unit": "ng/mL"},
      {"measurement": "[KDS-4103] plasma concentration", "setting": "[1]; time 90 minutes post-dose", "result": 105.36, "unit": "ng/mL"},
      {"measurement": "levels of the compound in circulation compared to the polymorph obtained from EtOH", "setting": "[1]; oral suspension", "result": "increased levels of the compound in circulation"},
      {"measurement": "bioavailability of the suspension", "setting": "[1]; oral suspension, compared to polymorph from ethanol", "result": "increased bioavailability"},
      {"measurement": "average effective average particle size", "setting": "[2]; listed as KDS-4103 from acetonitrile", "result": "about 5.9 μm"},
      {"measurement": "concentration at 0 min", "setting": "[3]; rat, plasma, po, 100 mg/kg, [KDS-4103] plasma concentration", "result": 0, "unit": "ng/mL"}
    ]},
    {"smiles": "NC(=O)c1cccc(-c2cccc(OC(=O)NC3CCCCC3)c2)c1", "note": "[KDS-4103 polymorph from ethanol]", "values": [
      {"measurement": "[KDS-4103] plasma concentration", "setting": "[1]; time 30 minutes post-dose", "result": 9.62, "unit": "ng/mL"},
      {"measurement": "[KDS-4103] plasma concentration", "setting": "[1]; time 60 minutes post-dose", "result": 12.60, "unit": "ng/mL"},
      {"measurement": "[KDS-4103] plasma concentration", "setting": "[1]; time 90 minutes post-dose", "result": 10.74, "unit": "ng/mL"},
      {"measurement": "average effective average particle size", "setting": "[2]; listed as KDS-4103 from ethanol", "result": "about 13.9 μm"},
      {"measurement": "[KDS-4103] plasma concentration", "setting": "[3]; time 0 minutes", "result": 0.00, "unit": "ng/mL"}
    ]},
    {"smiles": "NC(=O)c1cccc(-c2cccc(OC(=O)NC3CCCCC3)c2)c1", "note": "[KDS-4103]", "values": [
      {"measurement": "inhibition of FAAH activity", "setting": "[4]", "result": "potent and selective inhibitor of FAAH activity"}
    ]}
  ]
}
